# Laboratory results reported in US20250019378A1, “PYRROLE[2,3-B]PYRIDINE DERIVATIVES AS TYRO3 INHIBITORS” (HALIA THERAPEUTICS, INC., priority 2021, published 2025).
# Target: recombinant human Tyro3 (Homo sapiens (Human), UniProt Q06418)
# Test: Tyro3 Enzymatic Assay
# Format: biochemical
# Conditions: radiometric [32P]-ATP kinase assay, Poly(Glu, Tyr) substrate, 2 nM enzyme
# Experimental: Poly(Glu, Tyr) sodium salt (Glu:Tyr (4:1), quality level 200, molecular weight 5,000-20,000, obtained from Sigma Aldrich, catalogue #P7244, assay concentration 0.20 mg/mL) and recombinant human Tyro3 (obtained from ThermoFisher Scientific, catalogue #PV3828, assay concentration 2 nM) were mixed in assay buffer (20 mM Hepes pH 7.5, 10 mM MgCl2, […] EGTA, 0.02% Brij35, 0.02 mg/ml BSA, 0.1 mM Na3VO4, 2 mM DTT, 1% DMSO, with added MnCl2 at a final concentration of 2 mM). Compounds of interest (in DMSO, serial 3-fold dilution from 10 μM to 0.5 nM) or control (1% DMSO) were dispensed into the kinase reaction mixture by Acoustic technology (Echo550; nanoliter range). After incubation at room temperature for 20 minutes, the kinase reaction was initiated by addition of [^32P]-ATP (Specific activity 10 μCi/μL) and the mixture was incubated at room temperature for 2 hours. The reaction was then stopped by spotting the reaction mixture on strips of phosphocellulose P81 paper. Following washing, the radioactivity of the P81 paper was measured and kinase activity data were expressed as the percent remaining kinase activity in test samples compared to vehicle (dimethyl sulfoxide) reactions. IC50 values and curve fits were obtained using Prism (GraphPad Software).
# Chain of recombinant human Tyro3 (Q06418 41-890): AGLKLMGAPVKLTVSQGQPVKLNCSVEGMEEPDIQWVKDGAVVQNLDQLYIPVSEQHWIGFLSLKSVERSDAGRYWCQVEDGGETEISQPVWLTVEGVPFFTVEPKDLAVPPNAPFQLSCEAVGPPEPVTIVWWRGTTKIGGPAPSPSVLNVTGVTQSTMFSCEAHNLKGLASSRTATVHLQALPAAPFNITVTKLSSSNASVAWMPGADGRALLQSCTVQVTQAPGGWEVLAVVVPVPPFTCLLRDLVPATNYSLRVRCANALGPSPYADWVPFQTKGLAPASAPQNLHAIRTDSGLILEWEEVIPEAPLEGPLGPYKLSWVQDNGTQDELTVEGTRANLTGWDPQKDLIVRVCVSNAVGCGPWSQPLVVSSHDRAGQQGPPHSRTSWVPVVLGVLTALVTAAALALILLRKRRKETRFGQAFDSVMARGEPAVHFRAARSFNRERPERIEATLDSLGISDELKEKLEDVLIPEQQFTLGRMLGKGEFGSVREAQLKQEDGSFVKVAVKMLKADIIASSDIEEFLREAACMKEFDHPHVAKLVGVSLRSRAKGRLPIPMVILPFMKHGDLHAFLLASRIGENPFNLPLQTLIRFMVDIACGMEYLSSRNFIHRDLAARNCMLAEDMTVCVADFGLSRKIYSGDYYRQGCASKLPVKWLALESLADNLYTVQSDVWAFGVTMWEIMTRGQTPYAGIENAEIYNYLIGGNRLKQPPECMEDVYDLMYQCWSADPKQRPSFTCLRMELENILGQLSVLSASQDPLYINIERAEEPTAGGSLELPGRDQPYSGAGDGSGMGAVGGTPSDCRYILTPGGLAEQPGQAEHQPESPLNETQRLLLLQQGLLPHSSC
row,SMILES,IC50 [µM]
1,"CCc1[nH]c2ncc(-c3cn(C4CCN(C)CC4)nc3Cl)cc2c1-c1cccc(F)c1 [Compound 26, 5-(3-chloro-1-(1-methylpiperidin-4-yl)-1H-pyrazol-4-yl)-2-ethyl-3-(3-fluorophenyl)-1H-pyrrolo[2,3-b]pyridine]",0.151 to 0.501
2,"CCc1[nH]c2ncc(-c3cn(C4CCN(C)CC4)nc3OC)cc2c1-c1cccc(C(F)F)c1 [Compound 27, 3-(3-(difluoromethyl)phenyl)-2-ethyl-5-(3-methoxy-1-(1-methylpiperidin-4-yl)-1H-pyrazol-4-yl)-1H-pyrrolo[2,3-b]pyridine]",0.051 to 0.15
3,"COc1nn(C2CCN(C)CC2)cc1-c1cnc2[nH]c(Cl)c(-c3cccc(F)c3)c2c1 [Compound 28, 2-chloro-3-(3-fluorophenyl)-5-(3-methoxy-1-(1-methylpiperidin-4-yl)-1H-pyrazol-4-yl)-1H-pyrrolo[2,3-b]pyridine]",0.051 to 0.15
4,"COCCN1CCC(n2cc(-c3cnc4[nH]cc(-c5cccc(F)c5)c4c3)c(OC)n2)CC1 [Compound 29, 3-(3-fluorophenyl)-5-(3-methoxy-1-(1-(2-methoxyethyl)piperidin-4-yl)-1H-pyrazol-4-yl)-1H-pyrrolo[2,3-b]pyridine]",0.051 to 0.15
5,"COc1nn(C2CCN(C(C)=O)CC2)cc1-c1cnc2[nH]cc(-c3cccc(F)c3)c2c1 [Compound 30, 1-(4-(4-(3-(3-fluorophenyl)-1H-pyrrolo[2,3-b]pyridin-5-yl)-3-methoxy-1H-pyrazol-1-yl)piperidin-1-yl)ethan-1-one]",> 0.5
6,"COc1ccc(-c2c[nH]c3ncc(-c4cnn(CC5CCN(C)CC5)c4)cc23)cn1 [Compound 31, 3-(6-methoxypyridin-3-yl)-5-(1-((1-methylpiperidin-4-yl)methyl)-1H-pyrazol-4-yl)-1H-pyrrolo[2,3-b]pyridine]",0.151 to 0.501
7,"COc1ccc(-c2c[nH]c3ncc(-c4cnn(C5CCC(O)CC5)c4)cc23)cn1 (stereo not drawn) [Compound 32, 4-(4-(3-(6-methoxypyridin-3-yl)-1H-pyrrolo[2,3-b]pyridin-5-yl)-1H-pyrazol-1-yl)cyclohexan-1-ol]",0.151 to 0.501
8,"COc1ccc(-c2c[nH]c3ncc(-c4cnn(C5CC(OC)C5)c4)cc23)cn1 (stereo not drawn) [Compound 33, 5-(1-(3-methoxycyclobutyl)-1H-pyrazol-4-yl)-3-(6-methoxypyridin-3-yl)-1H-pyrrolo[2,3-b]pyridine]",> 0.5
9,"COc1ccc(-c2c[nH]c3ncc(-c4cc(CN5CCCC(O)C5)n(C)n4)cc23)cn1 (stereo not drawn) [Compound 35, 1-((3-(3-(6-methoxypyridin-3-yl)-1H-pyrrolo[2,3-b]pyridin-5-yl)-1-methyl-1H-pyrazol-5-yl)methyl)piperidin-3-ol]",> 0.5
